“Also recorded” adds a separate entry of the source.
How the values were obtained:
Topo I = molecular target: T1, Topo I (Homo sapiens, UniProt P11387); experiment: Topo I inhibitory activity, agarose gel electrophoresis (pBR322); format: biochemical; details: for nicked DNA in the lane (DNA breakage) / Topo I inhibitory activity (in words): 20 μM
T1 sequence (P11387 1-765): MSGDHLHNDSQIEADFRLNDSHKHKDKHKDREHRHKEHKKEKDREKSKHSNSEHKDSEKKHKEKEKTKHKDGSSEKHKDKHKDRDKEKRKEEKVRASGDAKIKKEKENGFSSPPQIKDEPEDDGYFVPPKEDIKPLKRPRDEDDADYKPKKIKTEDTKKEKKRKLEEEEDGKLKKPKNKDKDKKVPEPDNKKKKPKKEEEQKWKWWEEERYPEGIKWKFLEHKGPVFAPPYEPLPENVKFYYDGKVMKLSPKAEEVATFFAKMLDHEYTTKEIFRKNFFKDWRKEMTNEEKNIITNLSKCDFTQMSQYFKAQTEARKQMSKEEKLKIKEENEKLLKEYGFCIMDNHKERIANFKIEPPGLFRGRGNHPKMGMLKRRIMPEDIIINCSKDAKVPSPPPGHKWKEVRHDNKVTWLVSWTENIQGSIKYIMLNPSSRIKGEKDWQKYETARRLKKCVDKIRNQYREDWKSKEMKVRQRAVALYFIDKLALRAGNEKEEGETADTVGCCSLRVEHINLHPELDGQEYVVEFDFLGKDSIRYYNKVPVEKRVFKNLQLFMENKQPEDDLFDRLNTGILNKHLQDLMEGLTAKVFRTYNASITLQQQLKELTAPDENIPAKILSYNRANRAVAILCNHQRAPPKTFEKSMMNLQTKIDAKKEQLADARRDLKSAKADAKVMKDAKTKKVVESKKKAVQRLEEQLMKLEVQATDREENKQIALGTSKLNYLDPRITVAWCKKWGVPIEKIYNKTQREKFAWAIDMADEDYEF
Experimental: In this assay, 250 ng of pBR322 plasmid DNA, different concentrations of the compounds to be tested, 0.1% BSA 1 μL, 10× Topo I buffer, Topo I and add 1× TAE buffer were mixed to a final volume of 20 μL. The reaction was carried out for 30 min at 37 °C in a water bath. After the reaction was terminated, 4 μL of each of the 6× DNA Sampling Buffers were added to the gel. The pBR322 plasmid DNA alone was used as a negative control, and camptothecin was used as a positive control. Finally, the samples were loaded onto the gels and electrophoresed for about 1.5 h. After electrophoresis, the gel blocks were incubated in 1 mg/L ethidium bromide (EB) for 30 min and then visualized on the gel system.

Cal27 = experiment: MTT antiproliferative assay, Cal27; format: cell-based, human; details: mean ± SD
Experimental: (§1) Having evaluated their Topo I inhibitory activity, the antiproliferative activity of the target compounds against some common human cancer cell lines (NCI-H460, A549, ACHN, Cal27 and MGC-803) and one normal cell line (SV-HUC-1) was tested via an MTT assay. TPT, the first Topo I inhibitor approved in clinics, and cisplatin (CDDP), a commonly selected anticancer drug for treating head and neck malignancies, were used as the positive controls.
(§2) Human oral cancer Cal27 cells were seeded in 96-well plates and incubated overnight in 180 μL of medium containing 10% Fetal Bovine Serum (Gibco, San Francisco, CA, USA). […] Then, 10 μL of 5 mg/mL MTT solution was added to each well and incubated at 37 °C for 4 h. After 4 h of incubation at 37 °C, the MTT-containing medium was removed and DMSO was added to each well and the absorbance at 570 nm and 630 nm was measured using a microplate reader (CYTATION 3, Burton, Westwood, NJ, USA). Survival/% = (mean OD of experimental group/mean OD of control group) × 100%. Each test was repeated at least three times.

A549 = experiment: MTT antiproliferative assay, A549; format: cell-based, human; details: mean ± SD
Experimental: as §1, §2

MGC-803 = experiment: MTT antiproliferative assay, MGC-803; format: cell-based, human; details: mean ± SD
Experimental: as §1, §2

SV-HUC-1 = experiment: MTT assay, normal cell line SV-HUC-1; format: cell-based; details: mean ± SD
Experimental: as §1, §2

NCI-H460 = experiment: MTT antiproliferative assay, NCI-H460; format: cell-based, human; details: mean ± SD
Experimental: as §1, §2

ACHN = experiment: MTT antiproliferative assay, ACHN; format: cell-based, human; details: 48 h, mean ± SD
Experimental: as §1, §2

| Structure (SMILES) | nicked DNA in the lane (DNA breakage) (Topo I) | IC50 (A549; Homo sapiens, A549, 48 h) | IC50 (MGC-803; Homo sapiens, MGC-803, 48 h) | IC50 (NCI-H460; Homo sapiens, NCI-H460, 48 h) | IC50 (ACHN; Homo sapiens, ACHN) | Topo I inhibitory activity (in words) (Topo I) | concentration at which the activity of Topo I was fully inhibited (Topo I; different concentrations) | IC50 (A549; 48 h) | IC50 (MGC-803; 48 h) | IC50 (NCI-H460; 48 h) | IC50 (ACHN) | IC50 (Cal27; Homo sapiens, CAL-27, 48 h) | IC50 (SV-HUC-1; SV-HUC1, 48 h) | IC50 (Cal27; 48 h) | IC50 (SV-HUC-1; 48 h) |
| --- | --- | --- | --- | --- | --- | --- | --- | --- | --- | --- | --- | --- | --- | --- | --- |
| CN(C)CCCNc1nc2c(c3ccccc13)S(=O)(=O)c1ncccc1-2 [7af, 5-((3-(Dimethylamino)propyl)amino)pyrido[3′,2′:4,5] thieno[3,2-c]isoquinoline 11,11-dioxide] | nicked DNA could be clearly observed | 13.8 ± 2.53 µM | 9.84 ± 1.32 µM | 64.5 ± 2.88 µM | 14.7 ± 0.15 µM | – | – | – | – | – | – | 10.6 ± 0.96 µM | > 100 µM | – | – |
| NCCCNc1nc2c(c3ccccc13)S(=O)(=O)c1ncccc1-2 [7ak, 5-((3-Aminopropyl)amino)pyrido[3′,2′:4,5]thieno[3,2-c]isoquinoline 11,11-dioxide] | nicked DNA could be clearly observed | 52 ± 1.49 µM | 10.2 ± 1.61 µM | 56.6 ± 3.25 µM | 7.94 ± 3.26 µM | – | – | – | – | – | – | 10.6 ± 1.32 µM | > 100 µM | – | – |
| O=S1(=O)c2ncccc2-c2nc(NCCN3CCCC3)c3ccccc3c21 [7ac, 5-((2-(Pyrrolidin-1-yl)ethyl)amino)pyrido[3′,2′:4,5] thieno[3,2-c]isoquinoline 11,11-dioxide] | nicked DNA could be clearly observed | 9.69 ± 2.08 µM | 15.2 ± 3.41 µM | 12 ± 4.2 µM | 16.9 ± 3.27 µM | – | – | – | – | – | – | 14.6 ± 2.12 µM | 14.2 ± 2.77 µM | – | – |
| CCN(CC)CCNc1nc2c(c3ccccc13)S(=O)(=O)c1nc(C)cc(C)c1-2 [7bb, 5-((2-(Diethylamino)ethyl)amino)-7,9-dimethylpyrido[3′,2′:4,5]thieno[3,2-c]isoquinoline 11,11-dioxide] | – | 7.54 ± 2.07 µM | 6.02 ± 1.59 µM | 7.68 ± 0.88 µM | 5.66 ± 0.54 µM | weak Topo I activity | – | – | – | – | – | 4.89 ± 2.41 µM | 3.57 ± 0.35 µM | – | – |
| CCN(CC)CCCNc1nc2c(c3ccccc13)S(=O)(=O)c1ncccc1-2 [7ag, 5-((3-(Diethylamino)propyl)amino)pyrido[3′,2′:4,5] thieno[3,2-c]isoquinoline 11,11-dioxide] | nicked DNA could be clearly observed | 30 ± 0.31 µM | 24.37 ± 0.18 µM | 57.8 ± 0.65 µM | 26.9 ± 0.72 µM | – | – | – | – | – | – | 22.5 ± 1.84 µM | 75.8 ± 2.79 µM | – | – |
| Cc1cc(C)c2c(n1)S(=O)(=O)c1c-2nc(NCCN2CCCC2)c2ccccc12 [7bc, 7,9-Dimethyl-5-((2-(pyrrolidin-1-yl)ethyl)amino) pyrido[3′,2′:4,5]thieno[3,2-c]isoquinoline 11,11-dioxide] | – | 5.47 ± 0.82 µM | 6.44 ± 0.76 µM | 9.57 ± 2.07 µM | 6.41 ± 1.41 µM | potent Topo I activity | – | – | – | – | – | 3.36 ± 0.83 µM | 8.17 ± 3.36 µM | – | – |
| Cc1cc(C)c2c(n1)S(=O)(=O)c1c-2nc(NCCCN(C)C)c2ccccc12 [7bf, 5-((3-(Dimethylamino)propyl)amino)-7,9-dimethylpyrido[3′,2′:4,5]thieno[3,2-c]isoquinoline 11,11-dioxide] | – | 6.25 ± 2.23 µM | 8.44 ± 2.86 µM | 5.07 ± 1.92 µM | 6.67 ± 1.49 µM | potent Topo I activity; also recorded: weak Topo I activity | – | – | – | – | – | 5.2 ± 1.2 µM | 5.14 ± 1.55 µM | – | – |
| O=S1(=O)c2ncccc2-c2nc(NCCCN3CCCC3)c3ccccc3c21 [7ah, 5-((3-(Pyrrolidin-1-yl)propyl)amino)pyrido[3′,2′:4,5] thieno[3,2-c]isoquinoline 11,11-dioxide] | nicked DNA could be clearly observed | 27.7 ± 1.49 µM | 19.5 ± 0.87 µM | 42.7 ± 2.28 µM | 13 ± 1.24 µM | – | – | – | – | – | – | 23.1 ± 2.48 µM | > 100 µM | – | – |

The next lines start with results.

| nicked DNA in the lane (DNA breakage) (Topo I) | IC50 (A549; Homo sapiens, A549, 48 h) | IC50 (MGC-803; Homo sapiens, MGC-803, 48 h) | IC50 (NCI-H460; Homo sapiens, NCI-H460, 48 h) | IC50 (ACHN; Homo sapiens, ACHN) | Topo I inhibitory activity (in words) (Topo I) | concentration at which the activity of Topo I was fully inhibited (Topo I; different concentrations) | IC50 (A549; 48 h) | IC50 (MGC-803; 48 h) | IC50 (NCI-H460; 48 h) | IC50 (ACHN) | Structure (SMILES) | IC50 (Cal27; Homo sapiens, CAL-27, 48 h) | IC50 (SV-HUC-1; SV-HUC1, 48 h) | IC50 (Cal27; 48 h) | IC50 (SV-HUC-1; 48 h) |
| --- | --- | --- | --- | --- | --- | --- | --- | --- | --- | --- | --- | --- | --- | --- | --- |
| – | 4.84 ± 0.74 µM | 4.83 ± 0.67 µM | 4.79 ± 0.4 µM | 5.9 ± 1.45 µM | potent Topo I activity | 40 µM | – | – | – | – | Cc1cc(C)c2c(n1)S(=O)(=O)c1c-2nc(NCCCN2CCCC2)c2ccccc12 [7bh, 7,9-Dimethyl-5-((3-(pyrrolidin-1-yl)propyl)amino)-pyrido[3′,2′:4,5]thieno[3,2-c]isoquinoline 11,11-dioxide] | 3.47 ± 0.84 µM | 3.83 ± 0.14 µM | – | – |
| nicked DNA could be clearly observed | – | – | – | – | – | – | 27.1 ± 2.25 µM | 8.22 ± 2.75 µM | 16.6 ± 1.44 µM | 15.4 ± 3.65 µM | CCN(CC)CCCNc1nc2c(c3ccccc13)S(=O)(=O)c1nc(-c3ccccc3)cc(C)c1-2 [7cg, 5-((3-(Diethylamino)propyl)amino)-7-methyl-9-phenylpyrido[3′,2′:4,5]thieno[3,2-c]isoquinoline 11,11-dioxide] | – | – | 17.7 ± 3.96 µM | 15.6 ± 3.18 µM |
| – | 6.54 ± 0.52 µM | 6.23 ± 1.96 µM | 6.92 ± 2.01 µM | 6.89 ± 2.86 µM | weak Topo I activity | – | – | – | – | – | CCN(CC)CCCNc1nc2c(c3ccccc13)S(=O)(=O)c1nc(C)cc(C)c1-2 [7bg, 5-((3-(Diethylamino)propyl)amino)-7,9-dimethyl-pyrido[3′,2′:4,5]thieno[3,2-c]isoquinoline 11,11-dioxide] | 6.35 ± 3.28 µM | 4.38 ± 0.46 µM | – | – |
| – | > 100 µM | > 100 µM | > 100 µM | > 100 µM | weak Topo I activity | – | – | – | – | – | Cc1cc(C)c2c(n1)S(=O)(=O)c1c-2nc(NCCN2CCOCC2)c2ccccc12 [7bd, 7,9-Dimethyl-5-((2-morpholinoethyl)amino)pyrido[3′,2′:4,5]thieno[3,2-c]isoquinoline 11,11-dioxide] | > 100 µM | > 100 µM | – | – |
| nicked DNA could be clearly observed | – | – | – | – | – | – | > 100 µM | 13.3 ± 4.44 µM | 12.6 ± 2.23 µM | 16.6 ± 3.08 µM | Cc1cc(-c2ccccc2)nc2c1-c1nc(NCCCN(C)C)c3ccccc3c1S2(=O)=O [7cf, 5-((3-(Dimethylamino)propyl)amino)-7-methyl-9-phenylpyrido[3′,2′:4,5]thieno[3,2-c]isoquinoline 11,11-dioxide] | – | – | 21.5 ± 3.81 µM | 12.1 ± 3.26 µM |
| – | 80.5 ± 2.44 µM | > 100 µM | 73.68 ± 0.67 µM | > 100 µM | weak Topo I activity | – | – | – | – | – | Cc1cc(C)c2c(n1)S(=O)(=O)c1c-2nc(NCCCN2CCOCC2)c2ccccc12 [7bi, 7,9-Dimethyl-5-((3-morpholinopropyl)amino)-pyrido[3′,2′:4,5]thieno[3,2-c]isoquinoline 11,11-dioxide] | 20.3 ± 2.89 µM | 87.4 ± 2.65 µM | – | – |
